Test results from ChEMBL document CHEMBL2413049, “Design and synthesis of novel 1,25-dihydroxyvitamin D3 analogues having a spiro-oxetane fused at the C2 position in the A-ring” (Bioorg Med Chem, 2013).

What was measured:
[1] = molecular target: T1, Vitamin D3 receptor (Bos taurus) (UniProt Q28037); assay: Binding affinity to bovine thymus VDR relative to 1alpha,25-dihydroxyvitamin D3
T1 sequence (whole entry): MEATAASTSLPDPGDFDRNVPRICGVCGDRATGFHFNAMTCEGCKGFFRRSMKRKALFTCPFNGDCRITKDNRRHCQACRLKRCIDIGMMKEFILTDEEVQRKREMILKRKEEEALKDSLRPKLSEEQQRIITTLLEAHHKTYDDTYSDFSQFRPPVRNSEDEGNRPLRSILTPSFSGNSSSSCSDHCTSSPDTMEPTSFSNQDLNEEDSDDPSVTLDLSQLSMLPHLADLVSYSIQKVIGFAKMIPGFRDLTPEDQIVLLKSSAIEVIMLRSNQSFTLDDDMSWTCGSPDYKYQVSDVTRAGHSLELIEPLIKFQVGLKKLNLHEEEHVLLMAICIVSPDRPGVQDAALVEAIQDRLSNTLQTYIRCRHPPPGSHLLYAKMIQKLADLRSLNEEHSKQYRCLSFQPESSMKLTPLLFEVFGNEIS

[2] = molecular target: T1, Vitamin D3 receptor (Bos taurus); assay: Displacement of [3H]-1alpha,25 dihydroxyvitamin D3 from bovine thymus VDR after 60 mins relative to 1alpha,25-dihydroxyvitamin D3
[3] = molecular target: T2, Vitamin D3 receptor (Homo sapiens) (UniProt P11473); assay: Binding affinity to VDR (unknown origin) relative to 1alpha,25-dihydroxyvitamin D3
T2 sequence (whole entry): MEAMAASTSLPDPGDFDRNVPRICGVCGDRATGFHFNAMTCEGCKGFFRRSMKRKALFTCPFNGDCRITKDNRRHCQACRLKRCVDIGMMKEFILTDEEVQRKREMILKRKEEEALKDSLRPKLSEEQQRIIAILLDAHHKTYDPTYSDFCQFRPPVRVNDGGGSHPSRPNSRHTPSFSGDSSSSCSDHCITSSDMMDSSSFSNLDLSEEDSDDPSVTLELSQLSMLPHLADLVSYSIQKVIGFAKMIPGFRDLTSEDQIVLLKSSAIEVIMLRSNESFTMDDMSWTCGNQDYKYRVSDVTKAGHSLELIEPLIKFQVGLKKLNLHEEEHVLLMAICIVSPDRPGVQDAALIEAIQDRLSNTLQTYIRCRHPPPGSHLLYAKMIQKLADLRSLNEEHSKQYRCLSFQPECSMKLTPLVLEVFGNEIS

SMILES	fold change (FC) [2]	also measured
C=C1/C(=C\C=C2/CCC[C@]3(C)[C@@H]([C@H](C)CCCC(C)(C)O)CC[C@@H]23)C[C@@H](O)[C@@H](C)[C@@H]1O	–	fold change (FC) [1]: 13
C=C1/C(=C\C=C2/CCC[C@]3(C)[C@@H]([C@H](C)CCCC(C)(C)O)CC[C@@H]23)C[C@@H](O)C[C@@H]1O	100	–
C=C1/C(=C\C=C2/CCC[C@]3(C)[C@@H]([C@H](C)CCCC(C)(C)O)CC[C@@H]23)C[C@H](O)C2(COC2)[C@H]1O	0.001	–
C=C1/C(=C\C=C2/CCC[C@]3(C)[C@@H]([C@H](C)CCCC(C)(C)O)CC[C@@H]23)C[C@H](O)C2(COC2)[C@@H]1O	0.04	–
C=C1/C(=C\C=C2/CCC[C@]3(C)[C@@H]([C@H](C)CCCC(C)(C)O)CC[C@@H]23)C[C@@H](O)C(C)(C)[C@@H]1O	–	fold change (FC) [3]: 3
C=C1/C(=C\C=C2/CCC[C@]3(C)[C@@H]([C@H](C)CCCC(C)(C)O)CC[C@@H]23)C[C@@H](O)C2(COC2)[C@H]1O	0.002	–
C=C1/C(=C\C=C2/CCC[C@]3(C)[C@@H]([C@H](C)CCCC(C)(C)O)CC[C@@H]23)C[C@@H](O)[C@H](C)[C@@H]1O	–	fold change (FC) [1]: 400
C=C1/C(=C\C=C2/CCC[C@]3(C)[C@@H]([C@H](C)CCCC(C)(C)O)CC[C@@H]23)C[C@@H](O)C2(COC2)[C@@H]1O	5	–
